Measurements: patent US20250352497A1, “BIGUANIDE BASE COMPOSITIONS, BIGUANIDE BASE PHARMACEUTICAL COMPOSITIONS, AND THEIR PREPARATIONS AND USES” (ADA FORSYTH INSTITUTE, INC., priority 2022, published 2025)

Columns and labels:
Format in all cases: cell-based
[1] = test system: model microbiome simulating human oral microbiome; experiment: pH of model microbiome (supernatant and saliva-derived biofilm) after treatment in the presence of 2% sucrose
Protocol: (§1) Saliva samples were collected and pooled from 5 healthy volunteers as a model microbiome simulating human oral microbiome, and used to inoculate SHI medium containing different test compositions and controls.
(§2) 1 mL pooled saliva sample was added to each well of a 24-well plate that had been pre-coated with sterilized, cell-free saliva. The plate was incubated at 37° C. for 16 h in microaerobic conditions (2% O2, 5% CO2, balanced with nitrogen) to allow biofilm formation. After incubation, planktonic portion was collected, optical density was measured at 600 nm and cells were pelleted for DNA isolation. Meanwhile, 1 mL of SHI medium was added to the biofilm portion of each well, biofilm cells were dispersed by scraping and vortex to break the cell aggregates. Optical density was measured at 600 nm and cells were collected for DNA isolation.
Supernatant and biofilms prepared with the model microbiome simulating human oral microbiome according to Example III were treated with embodiments of the CHX base composition (e.g., solution embodiments of the CHX base composition prepared according to Example I (the CHX base solutions); and MSN3 prepared according to Example II(B)(ii)).
Supernatant and biofilms prepared with the model microbiome simulating human oral microbiome according to Example III were treated with CHX base solution (100 μg/mL, prepared according to Example I(A)); MSN3 (100 μg/mL and 125 μg/mL of CHX base, prepared according to Example I(B)); or nothing (control).

[2] = test system: model microbiome simulating human oral microbiome; experiment: Bacterial killing effects on model microbiome (optical density at 600 nm)
Protocol: as §1, §2
However, the pH of the treated biofilm appeared to depend on the CHX base concentration administered. The pH of the biofilm treated with CHX base solutions and CHX base loaded MSN remained under 5.5 when the CHX base concentration was 75 μg/mL or lower. […]

[3] = test system: model microbiome simulating human oral microbiome; experiment: Total colony forming units in supernatant and biofilm after treatment; details: supernatant and biofilms
Protocol: as §1, §2
CHX-G and CPC were also evaluated in the same model microbiome prepared in supernatant and biofilms according to Example III.

SMILES: [H]/N=C(\N/C(=N/[H])NCCCCCCNC(=N)NC(=N)Nc1ccc(Cl)cc1)Nc1ccc(Cl)cc1 [CHX base, Chlorhexidine]
- pH of treated microbiome/biofilm compared with control ([1]; Example IV, 16 hr, 2% sucrose): higher pH
- pH of the treated microbiome ([1]; supernatant and biofilms, various concentrations): ≤ 6.9
- cells present after treatment ([2]; Example IV(B): CHX base solution 100 μg/mL, MSN3 100 and 125 μg/mL of CHX base): abundant of cells
- survival/elimination of bacteria after treatment ([2]; Example IV, supernatant and biofilms): without complete elimination of bacteria

SMILES: N=C(NCCCCCCNC(=N)NC(=N)Nc1ccc(Cl)cc1)NC(=N)Nc1ccc(Cl)cc1.O=C(O)[C@H](O)[C@@H](O)[C@H](O)[C@H](O)CO.O=C(O)[C@H](O)[C@@H](O)[C@H](O)[C@H](O)CO [CHX-G, chlorhexidine digluconate]
- pH of treated biofilms compared with untreated biofilms ([1]; Example V): higher pH
- bacterial killing compared with MSN3 (200 μg/mL of CHX base) ([3]; 200 μg/mL): killed more bacteria
- bacteria remaining after treatment ([3]; Example V): no trace of bacteria
